Laboratory results reported in patent US20230265044A1, “SALT OF DEMETHYL TRAMADOL AND USE THEREOF” (priority 2020, published 2023).
In brackets after ≈: the same amount, converted by molar mass.

Key:
[1] = Determination on solubility in water (HPLC, stirred 24 hr); type: physicochemical; details: for solubility: in water, stirred for 24 hr; for approximate solubility: water needed to dissolve 1 g: per 1 g of sample, converted from solubility
Description: 1. chromatographic column: Agilent Pursuit C18, 3um, 4.6*150 mm
2. Mobile phase: 0.1% trifluoroacetic acid: acetonitrile=20: 80, flow rate: 1.0 mL/min, wavelength: 215 nm, column temperature: 35° C., injection volume: 10 μl;
3. Mobile phase preparation process:
1.0 mL of trifluoroacetic acid was added into 1000 mL of water, mixed well, and ultrasonicated;
4. Sample preparation process
About 10 mg of the sample to be tested was weighed and added into 1 mL of water, stirred for 24 hr, and centrifuged. The supernatant was taken as the sample for testing solubility. 10 mg of demethyl tramadol palmitate with the same structure as the sample to be tested was weighed and placed in a 100 mL measuring flask, 80% aqueous methanol solution was added to dissolve and dilute the demethyl tramadol palmitate to the scale, which was used as the corresponding reference solution.

[2] = Determination on hygroscopicity (80% RH, 24 h); type: physicochemical
Description: Test process: a weighing bottle was taken, put into a dryer with 80% RH saturated solution, balanced for 24 h, taken out, and weighed as m1; a sample was taken, spread into the weighing bottle with a thickness about 1 mm, and weighed as m2; and then the weighing bottle was put into the dryer with 80% RH saturated solution, balanced for 24 h, and weighed as m3.
Calculation formula: hygroscopicity=(m3−m2)/(m2−m1)*100%

Molecule: racemic demethyl tramadol acetate
- solubility [1]: higher than 50 mg/mL
- approximate solubility: water needed to dissolve 1 g [1]: ≤ 20 mL

Molecule: CN(C)CC1CCCCC1(O)c1cccc(O)c1 (racemic) [Example 2, Demethyl Tramadol Palmitate Monosalt]
- solubility [1]: 700 µg/mL
- approximate solubility: water needed to dissolve 1 g [1]: 1428.6 mL
- hygroscopicity [2]: 6.3%

Molecule: CN(C)C[C@H]1CCCC[C@]1(O)c1cccc(O)c1 (racemic) [racemic demethyl tramadol free base, (±)-(1RS, 2RS)-2-[(N,N dimethylamino)methylene]-1-hydroxy-cyclohexyl phenol]
- solubility [1]: 1400 µg/mL (≈ 5.61 mM)
- approximate solubility: water needed to dissolve 1 g [1]: 714.3 mL

Molecule: CN(C)C[C@H]1CCCC[C@]1(O)c1cccc(O)c1.Cl (racemic) [racemic demethyl tramadol hydrochloride]
- solubility [1]: higher than 200 mg/mL
- approximate solubility: water needed to dissolve 1 g [1]: ≤ 5 mL
